Structures are written as SMILES.

We go through 28 molecules from patent publication US10774064B2 (Cadent Therapeutics, Inc., priority 2016, dated 2020).

The target of one test is T1, small-conductance Ca2+-activated K+ channels (SK channels, subtype 2) (Homo sapiens, UniProt Q9H2S1).
T1 construct: expressed in transfected cells; host or cells: HEK293
Briefly: whole-cell patch-clamp of ionic current through SK2 channels in HEK293 cells (SC100). In kind it is cell-based. The settings on record: concentration that increases the basal current by 100%; HEK293 cells expressing SK2 channels. Summed up: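 Whole-cell patch-clamp recording of current in HEK293 cells expressing SK2 channels. SC100 is the compound concentration that increases basal current by 100%.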
(In general: In patch-clamp work, channel activity is measured electrically.)
Turning to `FC(F)c1csc(-c2nc(NC3CCC(F)(F)CC3)cc(N3CCOCC3)n2)n1` [Compound 339, N-(4,4-difluorocyclohexyl)-2-(4-(difluoromethyl)thiazol-2-yl)-6-morpholinopyrimidin-4-amine], the SC100 result is reported as “++ (++ means 200 nM-1000 nM)”.
The same measure, in the same setting: the entry for `CC(O)c1csc(-c2nc(NC3CCC(F)(F)CC3)cc(N3CCOCC3)n2)n1` (stereo not shown) [Compound 340, 1-(2-(4-((4,4-difluorocyclohexyl)amino)-6-morpholinopyrimidin-2-yl)thiazol-4-yl)ethan-1-ol] is “+ (+ means >1 uM)”; for `CCC(=O)N1CC(Oc2cc(NC3CCC(F)(F)CC3)nc(-c3nc(CF)cs3)n2)C1` [Compound 341, 1-(3-((6-((4,4-difluorocyclohexyl)amino)-2-(4-(fluoromethyl)thiazol-2-yl)pyrimidin-4-yl)oxy)azetidin-1-yl)propan-1-one] it is “++ (++ means 200 nM-1000 nM)”.
On to `CC(C)C(=O)N1CC(Oc2cc(NC3CCC(F)(F)CC3)nc(-c3nc(CF)cs3)n2)C1` [Compound 342, 1-(3-((6-((4,4-difluorocyclohexyl)amino)-2-(4-(fluoromethyl)thiazol-2-yl)pyrimidin-4-yl)oxy)azetidin-1-yl)-2-methylpropan-1-one], for which the SC100 entry is listed as “++ (++ means 200 nM-1000 nM)”.
Consider `Cc1cc(C)n(-c2cc(C(O)c3ncco3)cc(NC3CCC(F)(F)CC3)n2)n1` (stereo not shown) [Compound 343, (2-((4,4-difluorocyclohexyl)amino)-6-(3,5-dimethyl-1H-pyrazol-1-yl)pyridin-4-yl)(oxazol-2-yl)methanol], for which the SC100 result is given as “++ (++ means 200 nM-1000 nM)”.
For the molecule `COC(=O)N1CC(Oc2cc(NC3CCC(F)(F)CC3)nc(-c3nc(C(C)O)cs3)n2)C1` (stereo not shown) [Compound 344, methyl 3-((6-((4,4-difluorocyclohexyl)amino)-2-(4-(1-hydroxyethyl)thiazol-2-yl)pyrimidin-4-yl)oxy)azetidine-1-carboxylate], the SC100 result is “+ (+ means >1 uM)”.
Consider `Cc1cn(-c2cc(OC3COC3)cc(NC3CCC(F)(F)CC3)n2)nc1CF` [Compound 345, N-(4,4-difluorocyclohexyl)-6-(3-(fluoromethyl)-4-methyl-1H-pyrazol-1-yl)-4-(oxetan-3-yloxy)pyridin-2-amine], for which the SC100 result is listed as “++ (++ means 200 nM-1000 nM)”.
Consider `FCc1ccn(-c2nc(NC3CCC(F)(F)CC3)cc(OC3CC(F)C3)n2)n1` (stereo not shown) [Compound 346, N-(4,4-difluorocyclohexyl)-6-(3-fluorocyclobutoxy)-2-(3-(fluoromethyl)-1H-pyrazol-1-yl)pyrimidin-4-amine], for which the SC100 result is listed as “+ (+ means >1 uM)”.
Same read-out and setting: the same measure for `FCc1ccn(-c2nc(NC3CCC(F)(F)CC3)cc(OC3CC(F)(F)C3)n2)n1` [Compound 347, 6-(3,3-difluorocyclobutoxy)-N-(4,4-difluorocyclohexyl)-2-(3-(fluoromethyl)-1H-pyrazol-1-yl)pyrimidin-4-amine]: “++ (++ means 200 nM-1000 nM)”.
Turning to `CC(C)C(=O)NCc1cc(NC2CCC(F)(F)CC2)nc(-n2ccc(CF)n2)c1` [Compound 348, N-((2-((4,4-difluorocyclohexyl)amino)-6-(3-(fluoromethyl)-1H-pyrazol-1-yl)pyridin-4-yl)methyl)isobutyramide], the SC100 entry is on record as “++ (++ means 200 nM-1000 nM)”.
On to `CC(=O)NCc1cc(NC2CCC(F)(F)CC2)nc(-n2cc(C)c(CF)n2)c1` [Compound 349, N-((2-((4,4-difluorocyclohexyl)amino)-6-(3-(fluoromethyl)-4-methyl-1H-pyrazol-1-yl)pyridin-4-yl)methyl)acetamide], for which the SC100 result was “++ (++ means 200 nM-1000 nM)”.
Still for that read-out and setting: the same measure for `Cc1cc(C)n(-c2nc(NC3CCCC(F)(F)C3)cc(C(N)=O)n2)n1` (stereo not shown) [Compound 350, 6-((3,3-difluorocyclohexyl)amino)-2-(3,5-dimethyl-1H-pyrazol-1-yl)pyrimidine-4-carboxamide]: “+ (+ means >1 uM)”.
The same measure, in the same setting: the same measure for `Cc1cc(C)n(-c2nc(N[C@H]3CCCC(F)(F)C3)cc([C@H](C)O)n2)n1` [Compound 355, (−)-1-(6-(((S)-3,3-difluorocyclohexyl)amino)-2-(3,5-dimethyl-1H-pyrazol-1-yl)pyrimidin-4-yl)ethan-1-ol]: “+ (+ means >1 uM)”; for `Cc1cc(C)n(-c2nc(NC3CCCC(F)(F)C3)cc(C(C)(C)O)n2)n1` (stereo not shown) [Compound 356, 2-(6-((3,3-difluorocyclohexyl)amino)-2-(3,5-dimethyl-1H-pyrazol-1-yl)pyrimidin-4-yl)propan-2-ol]: “+ (+ means >1 uM)”; for `Cc1cc(C)n(-c2nc(CO)cc(NC3CCCC(F)(F)C3)n2)n1` (stereo not shown) [Compound 357, (6-((3,3-difluorocyclohexyl)amino)-2-(3,5-dimethyl-1H-pyrazol-1-yl)pyrimidin-4-yl)methanol]: “+ (+ means >1 uM)”.
With `Cc1cc(C)n(-c2nc(CF)cc(NC3CCCC(F)(F)C3)n2)n1` (stereo not shown) [Compound 358, N-(3,3-difluorocyclohexyl)-2-(3,5-dimethyl-1H-pyrazol-1-yl)-6-(fluoromethyl)pyrimidin-4-amine], the SC100 entry was “+ (+ means >1 uM)”.
Regarding `COc1cc(NC2CCC(F)(F)CC2)nc(-n2nc(C)cc2C)n1` [Compound 360, N-(4,4-difluorocyclohexyl)-2-(3,5-dimethyl-1H-pyrazol-1-yl)-6-methoxypyrimidin-4-amine], the SC100 result is on record as “++ (++ means 200 nM-1000 nM)”.
Turning to `COc1cc(NC2CCC(F)(F)CC2)nc(-c2nc(C)cs2)n1` [Compound 361, N-(4,4-difluorocyclohexyl)-6-methoxy-2-(4-methylthiazol-2-yl)pyrimidin-4-amine], the SC100 result was “++ (++ means 200 nM-1000 nM)”.
Take `FC1(F)CCC(Nc2cc(N3CCOCC3)nc(-n3ccc(C4CC4)n3)n2)CC1` [Compound 365, 2-(3-cyclopropyl-1H-pyrazol-1-yl)-N-(4,4-difluorocyclohexyl)-6-morpholinopyrimidin-4-amine]: the SC100 entry is listed as “++ (++ means 200 nM-1000 nM)”.

The same test, now with this note: whole-cell patch-clamp, HEK293 cells expressing SK2 channels; concentration that increases the basal current by 100%.
Consider `Cc1csc(-c2nc(NC3CCC(F)(F)CC3)cc(N3CCN(C(C)C)CC3)n2)n1` [IN10864-031-P1], for which the “SC100 (μM)” value is “+++ (+++ means <200 nM)”.
Same read-out and setting: the entry for `Cc1csc(-c2nc(NC3CCC(F)(F)CC3)cc(N3CCC(F)CC3)n2)n1` [IN10864-33.P1] is “++ (++ means 200 nM-1000 nM)”.
Consider `Cc1csc(-c2nc(NC3CCC(F)(F)CC3)cc(N3CCCOCC3)n2)n1` [IN10864-034.P1], for which the “SC100 (μM)” value is “+++ (+++ means <200 nM)”.
In the case of `Cc1csc(-c2nc(NC3CCC(F)(F)CC3)cc(N3CCOC(C)(C)C3)n2)n1` [IN10864-043-P1], the “SC100 (μM)” value was “+++ (+++ means <200 nM)”.
`COCC1CN(c2cc(NC3CCC(F)(F)CC3)nc(-c3nc(C)cs3)n2)CCN1C` (stereo not shown) [IN10864-060-P1]: the “SC100 (μM)” value is listed as “+++ (+++ means <200 nM)”.
On to `Cc1csc(-c2nc(NC3CCC(F)(F)CC3)cc(N3CCN(C)C(CO)C3)n2)n1` (stereo not shown) [IN10864-066-P1], for which the “SC100 (μM)” value is “++ (++ means 200 nM-1000 nM)”.
With `COC1CCCN(c2cc(NC3CCC(F)(F)CC3)nc(-c3nc(C)cs3)n2)C1` (stereo not shown) [IN10876-013-P1], the “SC100 (μM)” value is recorded as “++ (++ means 200 nM-1000 nM)”.
Regarding `CC(=O)c1cc(NC2CCC(F)(F)CC2)nc(-n2ccc(C)n2)n1` [IN10876-041-P2], the “SC100 (μM)” value is reported as “+ (+ means >1 uM)”.
Turning to `Cc1ccn(-c2nc(NC3CCC(F)(F)CC3)cc(C(C)O)n2)n1` (stereo not shown) [IN10876-051-P1], the “SC100 (μM)” value was “+ (+ means >1 uM)”.
